Measurements as given in patent US11712456B2, “Hemp extract for treatment of pain in animals” (Portland Technology Holdings LLC, priority 2018, dated 2023).
Where “and” joins values, the source holds several entries; their conditions need not be identical. Equal values may be shown once.

Experiment: Feline safety study: cannabidiol quantification in serum and pharmacokinetics (LC-MS/MS)
Assay type: in vivo
Conditions: individual cats; oral administration of 2/mg/kg cannabidiol in capsule form
Experimental: On the first day of dosing, blood was collected for a PK analysis from 6 of the 8 cats. The most cooperative cats were selected for the PK analysis. […] Samples were placed into a red top clotting tube with no serum separator. […] The harvested serum was placed in cyrovials stored at −70° C. Each tube was labeled with the cat id, date of collection and collection time point. Samples were shipped overnight on dry ice to the Proteomics & Metabolomics Facility at Colorado State University.
Aliquots of feline serum were delivered to the facility on dry ice and stored at −80° C. upon receipt. […] 200 μL of cold (−20 C) 100% Acetonitrile (spiked with 60 ng/mL of d3-CBD) was added to each sample and vortexed at room temperature for 5 minutes. 200 μL of water was added and vortexed for an additional 5 minutes. 1 ml of 100% hexane was then added to each sample and vortexed for a final 5 minutes. […] The upper hexane layer was transferred to new-labeled glass vials (˜900 uL per sample), carefully avoiding the middle and lower layers. Samples were concentrated to dryness under N2 and resuspended in 60 μL of 100% acetonitrile.
An 8 point standard curve of CBD was generated in matrix background using a blank serum. Concentrations ranged from 0 ng/mL 1000 ng/mL (3.2× dilution series). 50 uL of each spiked serum sample was extracted as above.
LC-MS/MS was performed on a Waters Acquity M-Class UPLC coupled to a Waters Xevo TQ-S triple quadrupole mass spectrometer. […] Flow rate was 3.0 μL/min and injection volume was 2.0 μL. Samples were held at 6° C. in the autosampler, and the column was operated at 70° C. The MS was operated in selected reaction monitoring (SRM) mode, where a parent ion is selected by the first quadrupole, fragmented in the collision cell, then a fragment ion selected for by the third quadrupole. Product ions, collision energies, and cone voltages were optimized for each analyte by direct injection of individual synthetic standards. Inter-channel delay was set to 3 ms. The MS was operated in positive ionization mode with the capillary voltage set to 3.6 kV. […]
All Raw data files were imported into the Skyline open source software package. […] Peak areas were extracted for target compounds detected in biological samples and normalized to the peak area of the appropriate internal standard in each sample using in-house R Script (TQS-tools). CBD concentrations were calculated in nanograms per milliliter of extract (0.06 mL) and then back calculated to nanograms per mL of serum (0.05 mL of serum). […]
LOD are calculated based on the standard deviation of the response (Sy) of the 0 point calibration standard (i.e. 0 ng/mL CBD as an estimate on noise) and the slope of the calibration curve (S) at levels approximating the LOD according to the formula: LOD=3*(Sy/S). […]

C=C(C)[C@@H]1CCC(C)=C[C@H]1c1c(O)cc(CCCCC)cc1O [cannabidiol]
AUC 0-t = Area under the curve (0 time to time of last collection [24 hr]): 265.0 ng·h/mL and 54.2 ng·h/mL and 42.4 ng·h/mL and 212.2 ng·h/mL and 125.0 ng·h/mL and 194.1 ng·h/mL and 134.2 ng·h/mL and 60.2 ng·h/mL | Cmax = Maximum concentration: 8.8 ng/mL and 12.1 ng/mL and 75.3 ng/mL and 40.5 ng/mL and 53.3 ng/mL and 21.2 ng/mL | Tmax = Time of maximum concentration: 4 h and 1 h | T½ el = Half-life of elimination: 2.3 h and 1.3 h and 1.7 h
